Test results as given in the supplement of paper PMC8671470.
Counter-ions that a name gives are not always drawn.

System: LAMA-84
Assay: cell viability (% survival relative to DMSO control, bortezomib = 0%); higher = less cytotoxic
Conditions: 10 nM; 72 h
Procedure, shortened: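 Fifteen myeloid leukaemia cell lines were exposed to compounds at 1, 10, 100, 1000 or 10000 nM in 384-well plates for 72 h at 37 °C and 5% CO2. Viability was read by CellTiter-Glo luminescence and normalised, with vehicle as 100% and a 10 µM positive control as 0%. Values are percent survival averaged over duplicates.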

| SMILES | cell viability [%] |
| --- | --- |
| Cc1ccc(-c2cc(C(F)(F)F)nn2-c2ccc(S(N)(=O)=O)cc2)cc1 [Celecoxib] | 106 |
| O=c1c(-c2ccc(O)cc2)coc2cc(O[C@@H]3O[C@H](CO)[C@@H](O)[C@H](O)[C@H]3O)ccc12 [Daidzin] | 91 |
| C[C@H]1c2cccc(O)c2C(=O)C2C(=O)[C@]3(O)C(=O)C(C(N)=O)C(=O)[C@@H](N(C)C)[C@@H]3[C@@H](O)[C@@H]21 (stereo partly specified) [Doxycycline] | 95.3 |
| OC[C@H]1NC[C@H](O)[C@@H](O)[C@@H]1O [Duvoglustat] | 98 |
| O=C(NCCN1CCC(n2c(O)nc3ccccc32)CC1)c1cc2cc(F)ccc2[nH]1 [FIPI] | 103 |
| CCN(CCO)CCCC(C)Nc1ccnc2cc(Cl)ccc12 (stereo unspecified) [Hydroxychloroquine sulfate] | 108 |
| O=C([O-])CC(O)(C(=O)[O-])C(O)C(=O)[O-].[K+].[K+].[K+] (stereo unspecified) [Hydroxycitrate] | 95.9 |
| CCCCCN(C)CCC(O)(P(=O)(O)O)P(=O)(O)O [Ibandronate] | 98.3 |
| Cc1cc(C(=O)NNCc2ccccc2)no1 [Isocarboxazid] | 97.9 |
| CCn1c(=Cc2cccc[n+]2CC)sc(=C2Sc3ccccc3N2C)c1=O [MKT 077] | 94.7 |
| COC(=O)c1cc2c(C(F)(F)F)cc(-c3ccccc3)cc2n1O [NHI-2] | 95 |
| CCCCCCCC/C=C\CCCCCCCC(=O)Nc1ccccc1 [Octadec-9-Enoic Acid Phenylamide] | 97.8 |
| CC[C@H](C)[C@H](N)C(=O)N1CCSC1 [P32/98] | 102 |
| OC[C@H]1O[C@@H](n2cnc3c2N=CNC[C@H]3O)C[C@@H]1O [Pentostatin] | 99.6 |
| CC(C)CC(=O)N[C@H](C(=O)N[C@H](C(=O)N[C@@H](CC(C)C)[C@@H](O)CC(=O)N[C@@H](C)C(=O)N[C@@H](CC(C)C)[C@@H](O)CC(=O)O)C(C)C)C(C)C [Pepstatin A] | 87.2 |
| Cc1cccc(Nc2cc(Cl)nc(SCC(=O)O)n2)c1C [Pirinixic acid] | 97.7 |
| C[C@]12C=CC(=O)C=C1CC[C@@H]1[C@@H]2[C@@H](O)C[C@@]2(C)[C@H]1CC[C@]2(O)C(=O)CO [Prednisolone] | 106 |
| N[C@@H](CC(=O)N1CCn2c(nnc2C(F)(F)F)C1)Cc1cc(F)c(F)cc1F [Sitagliptin] | 99.2 |
| CCCc1nc(C)c2c(=O)nc(-c3cc(S(=O)(=O)N4CCN(CC)CC4)ccc3OCC)[nH]n12 [Vardenafil] | 95.2 |
| CCc1c(C(=O)C(N)=O)c2c(OCC(=O)O)cccc2n1Cc1ccccc1 [Varespladib] | 100 |
| N#Cc1ccc(N(Cc2ccc(Br)cc2)n2cnnc2)cc1 [YM511] | 100 |
| N#C/C(=C\c1ccc(O)cc1)C(=O)O [alpha-cyano-4-hydroxycinnamic acid] | 107 |

Same assay, conditions: 100 nM; 72 h

| SMILES | cell viability [%] |
| --- | --- |
| CN(CCCOc1ccc(Cc2ccccc2)cc1)CCC(=O)O | 95 |
| COc1ccc2c(NC(=O)Nc3cccc(C(F)(F)F)n3)ccnc2c1 | 105 |
| Cc1nc(-c2ccccc2)sc1C(=O)Nc1ccc(S(N)(=O)=O)cc1 | 102 |
| C=CC(=O)c1ccc(O)cc1 [4-Acryloylphenol] | 99.9 |
| O=c1cc(-c2ccccc2)oc2c1ccc1ccccc12 [Alpha-Naphtoflavone] | 103 |
| Cc1c(Cl)cccc1S(=O)(=O)Nc1nc(CC(=O)N2CCN(C)CC2)cs1 [BVT-2733] | 96.9 |
| CCc1oc2ccccc2c1C(=O)c1cc(Br)c(O)c(Br)c1 [Benzbromarone] | 96.3 |
| CCOC(=O)c1sc(NC(=O)c2ccco2)c(SC#N)c1C [CBR-5884] | 103 |
| CCCCCOC(=O)Nc1nc(=O)n([C@@H]2O[C@H](C)[C@@H](O)[C@H]2O)cc1F [Capecitabine] | 87.6 |
| Cc1ccc(-c2cc(C(F)(F)F)nn2-c2ccc(S(N)(=O)=O)cc2)cc1 [Celecoxib] | 94 |
| O=c1c(-c2ccc(O)cc2)coc2cc(O[C@@H]3O[C@H](CO)[C@@H](O)[C@H](O)[C@H]3O)ccc12 [Daidzin] | 96.8 |
| C[C@H]1c2cccc(O)c2C(=O)C2C(=O)[C@]3(O)C(=O)C(C(N)=O)C(=O)[C@@H](N(C)C)[C@@H]3[C@@H](O)[C@@H]21 (stereo partly specified) [Doxycycline] | 106 |
| OC[C@H]1NC[C@H](O)[C@@H](O)[C@@H]1O [Duvoglustat] | 106 |
| O=C(NCCN1CCC(n2c(O)nc3ccccc32)CC1)c1cc2cc(F)ccc2[nH]1 [FIPI] | 103 |
| CCN(CCO)CCCC(C)Nc1ccnc2cc(Cl)ccc12 (stereo unspecified) [Hydroxychloroquine sulfate] | 106 |
| O=C([O-])CC(O)(C(=O)[O-])C(O)C(=O)[O-].[K+].[K+].[K+] (stereo unspecified) [Hydroxycitrate] | 115 |

| SMILES | cell viability [%] |
| --- | --- |
| CCCCCN(C)CCC(O)(P(=O)(O)O)P(=O)(O)O [Ibandronate] | 100 |
| Cc1cc(C(=O)NNCc2ccccc2)no1 [Isocarboxazid] | 99.7 |
| CCn1c(=Cc2cccc[n+]2CC)sc(=C2Sc3ccccc3N2C)c1=O [MKT 077] | 114 |
| COC(=O)c1cc2c(C(F)(F)F)cc(-c3ccccc3)cc2n1O [NHI-2] | 93.9 |
| CCCCCCCC/C=C\CCCCCCCC(=O)Nc1ccccc1 [Octadec-9-Enoic Acid Phenylamide] | 101 |
| CC[C@H](C)[C@H](N)C(=O)N1CCSC1 [P32/98] | 102 |
| OC[C@H]1O[C@@H](n2cnc3c2N=CNC[C@H]3O)C[C@@H]1O [Pentostatin] | 111 |
| CC(C)CC(=O)N[C@H](C(=O)N[C@H](C(=O)N[C@@H](CC(C)C)[C@@H](O)CC(=O)N[C@@H](C)C(=O)N[C@@H](CC(C)C)[C@@H](O)CC(=O)O)C(C)C)C(C)C [Pepstatin A] | 103 |
| Cc1cccc(Nc2cc(Cl)nc(SCC(=O)O)n2)c1C [Pirinixic acid] | 99 |
| C[C@]12C=CC(=O)C=C1CC[C@@H]1[C@@H]2[C@@H](O)C[C@@]2(C)[C@H]1CC[C@]2(O)C(=O)CO [Prednisolone] | 92.6 |
| N[C@@H](CC(=O)N1CCn2c(nnc2C(F)(F)F)C1)Cc1cc(F)c(F)cc1F [Sitagliptin] | 94 |
| CCCc1nc(C)c2c(=O)nc(-c3cc(S(=O)(=O)N4CCN(CC)CC4)ccc3OCC)[nH]n12 [Vardenafil] | 101 |
| CCc1c(C(=O)C(N)=O)c2c(OCC(=O)O)cccc2n1Cc1ccccc1 [Varespladib] | 103 |
| N#Cc1ccc(N(Cc2ccc(Br)cc2)n2cnnc2)cc1 [YM511] | 93.4 |
| N#C/C(=C\c1ccc(O)cc1)C(=O)O [alpha-cyano-4-hydroxycinnamic acid] | 96.7 |

Same assay, conditions: 1000 nM; 72 h

| SMILES | cell viability [%] |
| --- | --- |
| CN(CCCOc1ccc(Cc2ccccc2)cc1)CCC(=O)O | 98.2 |
| COc1ccc2c(NC(=O)Nc3cccc(C(F)(F)F)n3)ccnc2c1 | 100 |
| Cc1nc(-c2ccccc2)sc1C(=O)Nc1ccc(S(N)(=O)=O)cc1 | 96.2 |
| C=CC(=O)c1ccc(O)cc1 [4-Acryloylphenol] | 105 |
| O=c1cc(-c2ccccc2)oc2c1ccc1ccccc12 [Alpha-Naphtoflavone] | 93.5 |
| Cc1c(Cl)cccc1S(=O)(=O)Nc1nc(CC(=O)N2CCN(C)CC2)cs1 [BVT-2733] | 105 |
| CCc1oc2ccccc2c1C(=O)c1cc(Br)c(O)c(Br)c1 [Benzbromarone] | 96.1 |
| CCOC(=O)c1sc(NC(=O)c2ccco2)c(SC#N)c1C [CBR-5884] | 102 |
| CCCCCOC(=O)Nc1nc(=O)n([C@@H]2O[C@H](C)[C@@H](O)[C@H]2O)cc1F [Capecitabine] | 99 |
| Cc1ccc(-c2cc(C(F)(F)F)nn2-c2ccc(S(N)(=O)=O)cc2)cc1 [Celecoxib] | 93.7 |
| O=c1c(-c2ccc(O)cc2)coc2cc(O[C@@H]3O[C@H](CO)[C@@H](O)[C@H](O)[C@H]3O)ccc12 [Daidzin] | 99.2 |
| C[C@H]1c2cccc(O)c2C(=O)C2C(=O)[C@]3(O)C(=O)C(C(N)=O)C(=O)[C@@H](N(C)C)[C@@H]3[C@@H](O)[C@@H]21 (stereo partly specified) [Doxycycline] | 92 |
| OC[C@H]1NC[C@H](O)[C@@H](O)[C@@H]1O [Duvoglustat] | 88.3 |
| O=C(NCCN1CCC(n2c(O)nc3ccccc32)CC1)c1cc2cc(F)ccc2[nH]1 [FIPI] | 98.6 |
| CCN(CCO)CCCC(C)Nc1ccnc2cc(Cl)ccc12 (stereo unspecified) [Hydroxychloroquine sulfate] | 94.9 |
| O=C([O-])CC(O)(C(=O)[O-])C(O)C(=O)[O-].[K+].[K+].[K+] (stereo unspecified) [Hydroxycitrate] | 93.8 |
| CCCCCN(C)CCC(O)(P(=O)(O)O)P(=O)(O)O [Ibandronate] | 106 |
| Cc1cc(C(=O)NNCc2ccccc2)no1 [Isocarboxazid] | 95.5 |
| CCn1c(=Cc2cccc[n+]2CC)sc(=C2Sc3ccccc3N2C)c1=O [MKT 077] | 104 |
| COC(=O)c1cc2c(C(F)(F)F)cc(-c3ccccc3)cc2n1O [NHI-2] | 87.5 |
| CCCCCCCC/C=C\CCCCCCCC(=O)Nc1ccccc1 [Octadec-9-Enoic Acid Phenylamide] | 103 |
| CC[C@H](C)[C@H](N)C(=O)N1CCSC1 [P32/98] | 106 |
| OC[C@H]1O[C@@H](n2cnc3c2N=CNC[C@H]3O)C[C@@H]1O [Pentostatin] | 101 |
